Data on one compound can be found in PubChem BioAssay (NCI).

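Cells were grown in 96-well plates and exposed to each compound for 48 hours at five concentrations; endpoints were interpolated linearly between bracketing concentrations, or set to the highest concentration if not reached. The concentration for full growth arrest is given as TGI.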

Test systems include 786-0 renal; ACHN renal; CAKI-1 renal; COLO 205 colon; EKVX NSCLC; HCC-2998 colon; HOP-62 NSCLC; LOX IMVI melanoma; MALME-3M melanoma; OVCAR-3 ovarian.
Common to all, as to test: growth of human tumour cells (NCI), 48 h

Regarding `COc1ccccc1NC(=S)N/N=C(/c1ccccc1)c1ccccn1`, the TGI in the test on 786-0 renal turned out to be 18.7 µM; in the test with ACHN renal it was 11.8 µM; with CAKI-1 renal it was 10.2 µM; with COLO 205 colon it was 0.59 µM; with EKVX NSCLC, 5.46 µM; in the test with HCC-2998 colon it was 29.1 µM. Further, the TGI with HOP-62 NSCLC was determined as 12.6 µM; with LOX IMVI melanoma, 15.7 µM; in the test on MALME-3M melanoma it was 17.3 µM; in the test with OVCAR-3 ovarian, 16.5 µM.
